Laboratory results published in ChEMBL document CHEMBL1157366 (Antimicrob Agents Chemother, 2007).
Active and inactive are the calls of the source. The calls are words filed in the database; no cut-off is given here.

Legend:
[1] = target: T1, Lethal factor (Bacillus anthracis) (UniProt P15917); experiment: Protection against Bacillus anthracis lethal toxin-mediated cytotoxicity in mouse RAW264.7 cells assessed as change in viability at 0.125 to 12.5 uM relative to toxin-treated control; format: cell-based
T1 sequence (whole entry): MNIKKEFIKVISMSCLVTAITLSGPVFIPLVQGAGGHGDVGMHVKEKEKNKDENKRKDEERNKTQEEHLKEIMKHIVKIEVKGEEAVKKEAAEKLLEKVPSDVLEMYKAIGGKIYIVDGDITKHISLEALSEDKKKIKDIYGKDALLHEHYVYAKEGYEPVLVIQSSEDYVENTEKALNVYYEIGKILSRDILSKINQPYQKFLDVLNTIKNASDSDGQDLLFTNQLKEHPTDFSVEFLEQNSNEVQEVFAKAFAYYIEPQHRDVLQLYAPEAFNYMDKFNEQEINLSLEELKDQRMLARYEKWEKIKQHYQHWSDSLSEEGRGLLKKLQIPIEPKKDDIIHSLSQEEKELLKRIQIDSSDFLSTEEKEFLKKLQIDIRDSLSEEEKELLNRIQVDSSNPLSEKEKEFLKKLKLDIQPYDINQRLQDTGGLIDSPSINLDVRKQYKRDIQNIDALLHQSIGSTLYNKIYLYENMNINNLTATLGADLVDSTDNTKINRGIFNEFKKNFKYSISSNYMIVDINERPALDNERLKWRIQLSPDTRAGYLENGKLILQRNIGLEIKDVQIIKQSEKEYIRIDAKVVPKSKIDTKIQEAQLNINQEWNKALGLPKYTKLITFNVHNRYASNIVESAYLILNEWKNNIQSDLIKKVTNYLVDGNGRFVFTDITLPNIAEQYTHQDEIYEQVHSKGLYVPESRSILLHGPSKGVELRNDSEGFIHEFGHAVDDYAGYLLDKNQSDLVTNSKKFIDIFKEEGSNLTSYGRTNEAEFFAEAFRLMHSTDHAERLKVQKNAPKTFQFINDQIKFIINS

[2] = target: Diphtheria toxin (Corynebacterium diphtheriae) (UniProt Q5PY51); experiment: Protection against diphtheria toxin-mediated cytotoxicity in CHOK1 cells assessed as cell viability after 48 hrs by WST1 dye reduction assay; format: cell-based; conditions: CHO-K1
Serum = experiment: Drug level in human serum; format: ADME, cell-free; conditions: read-out: Drug uptake
[3] = target: Protective antigen (Bacillus anthracis) (UniProt P13423); experiment: Inhibition of Bacillus anthracis protective antigen pore formation in mouse RAW264.7 cells at 12.5 uM after 2 hrs; format: cell-based
Rattus norvegicus [4] = experiment: Toxicity in Bacillus anthracis lethal toxin-mediated intoxicated Fischer 344 rat assessed as adverse side effects administered through cannula; format: organism-based; conditions: in vivo, other
[5] = target: T2, Calmodulin-sensitive adenylate cyclase (Bacillus anthracis) (UniProt P40136); experiment: Inhibition of Bacillus anthracis edema toxin-mediated intoxication in CHOK1 cells assessed as cAMP levels after 4 hrs by HTRF assay; format: cell-based; conditions: CHO-K1
T2 sequence (whole entry): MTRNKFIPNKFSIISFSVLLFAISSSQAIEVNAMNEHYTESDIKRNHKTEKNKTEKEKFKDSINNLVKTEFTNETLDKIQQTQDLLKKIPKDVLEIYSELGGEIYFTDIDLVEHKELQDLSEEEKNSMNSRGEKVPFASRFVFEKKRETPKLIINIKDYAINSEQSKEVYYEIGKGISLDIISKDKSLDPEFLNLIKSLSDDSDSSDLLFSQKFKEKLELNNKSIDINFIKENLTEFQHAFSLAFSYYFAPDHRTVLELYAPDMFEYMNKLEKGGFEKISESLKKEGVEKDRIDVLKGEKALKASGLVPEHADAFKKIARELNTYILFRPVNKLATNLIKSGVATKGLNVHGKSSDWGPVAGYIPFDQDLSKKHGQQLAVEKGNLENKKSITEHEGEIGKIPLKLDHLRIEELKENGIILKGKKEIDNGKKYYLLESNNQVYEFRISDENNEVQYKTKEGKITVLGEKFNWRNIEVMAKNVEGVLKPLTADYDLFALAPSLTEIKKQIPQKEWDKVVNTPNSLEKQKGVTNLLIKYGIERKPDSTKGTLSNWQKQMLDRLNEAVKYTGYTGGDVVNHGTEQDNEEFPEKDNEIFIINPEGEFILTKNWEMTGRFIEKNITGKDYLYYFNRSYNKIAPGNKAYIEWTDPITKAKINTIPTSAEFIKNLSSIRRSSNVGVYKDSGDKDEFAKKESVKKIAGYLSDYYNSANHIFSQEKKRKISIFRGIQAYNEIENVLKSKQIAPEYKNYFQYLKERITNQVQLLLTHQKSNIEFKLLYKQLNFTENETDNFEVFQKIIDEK

[6] = target: Protective antigen (Bacillus anthracis) (UniProt P13423); experiment: Inhibition of Bacillus anthracis protective antigen binding to cell surface of mouse RAW264.7 cells at 12.5 uM after 2 hrs by flow cytometry; format: cell-based
Rattus norvegicus [7] = experiment: Protection against Bacillus anthracis lethal toxin-mediated intoxication in Fischer 344 rat assessed as time to death at 54 mg/kg administered through cannula; format: functional
CHO-K1 = experiment: Inhibition of cholera toxin-mediated intoxication in CHOK1 cells assessed as cAMP levels after 4 hrs by HTRF assay; format: cell-based; conditions: Vibrio cholerae
Rattus norvegicus [8] = experiment: Protection against Bacillus anthracis lethal toxin-mediated intoxication in Fischer 344 rat assessed as time to death at 5.4 mg/kg administered through cannula; format: functional
Plasmodium falciparum = experiment: Antimalarial activity against Plasmodium falciparum; format: functional, organism-based

Chain of Protective antigen (Bacillus anthracis) (P13423 whole entry): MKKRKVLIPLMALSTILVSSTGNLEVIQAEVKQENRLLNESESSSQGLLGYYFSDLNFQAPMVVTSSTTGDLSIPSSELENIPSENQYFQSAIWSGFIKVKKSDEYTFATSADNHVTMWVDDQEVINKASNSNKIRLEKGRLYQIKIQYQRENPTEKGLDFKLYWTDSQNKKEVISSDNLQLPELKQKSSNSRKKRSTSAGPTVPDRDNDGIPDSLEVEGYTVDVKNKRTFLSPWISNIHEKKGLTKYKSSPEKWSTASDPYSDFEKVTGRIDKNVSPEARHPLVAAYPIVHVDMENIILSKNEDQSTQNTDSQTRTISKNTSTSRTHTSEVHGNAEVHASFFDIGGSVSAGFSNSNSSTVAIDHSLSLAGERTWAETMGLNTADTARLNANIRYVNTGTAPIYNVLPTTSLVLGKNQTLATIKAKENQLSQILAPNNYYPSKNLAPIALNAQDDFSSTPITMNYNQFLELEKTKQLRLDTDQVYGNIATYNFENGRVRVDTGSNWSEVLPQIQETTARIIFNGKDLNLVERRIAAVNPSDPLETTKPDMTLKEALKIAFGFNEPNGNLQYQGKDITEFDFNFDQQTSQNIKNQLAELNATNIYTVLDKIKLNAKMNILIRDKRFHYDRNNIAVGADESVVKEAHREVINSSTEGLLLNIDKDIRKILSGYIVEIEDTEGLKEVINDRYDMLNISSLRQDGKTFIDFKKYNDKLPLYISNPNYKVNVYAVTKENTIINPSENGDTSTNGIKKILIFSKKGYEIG
Chain of Diphtheria toxin (Corynebacterium diphtheriae) (Q5PY51 as listed by the source): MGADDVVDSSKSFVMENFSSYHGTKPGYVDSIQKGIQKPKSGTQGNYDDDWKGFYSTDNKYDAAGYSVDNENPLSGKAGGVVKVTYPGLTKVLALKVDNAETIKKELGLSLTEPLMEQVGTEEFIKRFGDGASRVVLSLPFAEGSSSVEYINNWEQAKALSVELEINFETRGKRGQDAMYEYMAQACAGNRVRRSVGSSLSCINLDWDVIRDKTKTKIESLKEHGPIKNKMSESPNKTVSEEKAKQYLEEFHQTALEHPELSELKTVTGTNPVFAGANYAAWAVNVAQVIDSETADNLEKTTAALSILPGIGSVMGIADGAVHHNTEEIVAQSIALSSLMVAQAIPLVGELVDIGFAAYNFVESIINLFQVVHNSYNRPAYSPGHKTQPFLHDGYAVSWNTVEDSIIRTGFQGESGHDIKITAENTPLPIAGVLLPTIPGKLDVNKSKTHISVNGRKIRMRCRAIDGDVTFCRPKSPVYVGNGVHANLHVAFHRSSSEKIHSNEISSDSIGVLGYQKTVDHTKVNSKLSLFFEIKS

C1CCC(/N=C(\NC23CC4CC(CC(C4)C2)C3)N2CCOCC2)CC1
fold change (FC) [1]: 3.9

CC1(C)CCC(C)(C)c2cc(C(=O)Nc3ccc(C(=O)O)cc3)ccc21
fold change (FC) [1]: 3.9

CC1(C)Oc2ccc(C#N)cc2[C@@H](OC2=CC(=O)CC2)[C@@H]1O
fold change (FC) [1]: 3

CC1=C(/C=C/C(C)=C/C=C/C(C)=C/C(=O)O)C(C)(C)CCC1
fold change (FC) [1]: 3

CC1=C(/C=C/C(C)=C/C=C/C(C)=C\C(=O)O)C(C)(C)CCC1
fold change (FC) [1]: 3.2

CC1=C(/C=C/C(C)=C\C=C\C(C)=C\C(=O)O)C(C)(C)CCC1
fold change (FC) [1]: 2.6

CCCCCCCCCCCCCCCCOC[C@@H](COP(=O)([O-])OCC[N+](C)(C)C)OC(C)=O
fold change (FC) [1]: 3.2

CCCNCC(O)COc1ccccc1C(=O)CCc1ccccc1 (centres undefined)
fold change (FC) [1]: 3.1

COc1ccc(S(=O)(=O)N(CCO)c2ccccc2CN(C)C/C=C/c2ccc(Cl)cc2)cc1
fold change (FC) [1]: 6.3

N=C(NC(=O)c1nc(Cl)c(N)nc1N)Nc1ccccc1
fold change (FC) [1]: 2.8

N[C@@H](COP(=O)(O)O)C(=O)O
fold change (FC) [1]: 2.8

O=S(=O)(NCCNC/C=C/c1ccc(Br)cc1)c1cccc2cnccc12
fold change (FC) [1]: 2.9

O=c1[nH]c2cc(C(F)(F)F)ccc2n1-c1cc(C(F)(F)F)ccc1O
fold change (FC) [1]: 2.8

CCCCc1oc2ccccc2c1C(=O)c1cc(I)c(OCCN(CC)CC)c(I)c1 [AMIODARONE]
Activity [2]: Active | concentration (Serum): 3.75 µM | Activity [3]: Active | Activity (Rattus norvegicus [4]): Non-toxic | Activity [5]: Active | Activity [6]: inactive | Activity (Rattus norvegicus [7]): 82.6 min | Activity (CHO-K1): inactive | Activity (Rattus norvegicus [8]): 64.8 min

CC(C)COCC(CN(Cc1ccccc1)c1ccccc1)N1CCCC1 (centres undefined) [BEPRIDIL]
Activity [2]: Active | concentration (Serum): 6.8 µM | Activity [3]: Active | Activity [5]: Active | Activity [6]: inactive | Activity (CHO-K1): inactive | IC50 (Plasmodium falciparum): 2.5 µM
